In brackets after ≈: the same amount, converted by molar mass.
Key:
[1] = tested on: DU145 prostate cancer cells; test: Experiments of inhibiting growth of cancer cells, SRB method, DU145; type: cell-based; conditions: Homo sapiens, DU-145, 48 h with drug
Experimental: (§1) The cells were placed in 2.5 cm culture dish and cultured at 37° C. in wet air containing 5% CO2. Cell lines grew adhering to wall. The preparation and dilution of samples as well as process for inoculating them to cellular fluid were performed under aseptic condition. The test samples usually were dissolved in DMSO, stored at −70° C. […] GI50 values about inhibiting growth of cancer cells were determined by SRB (sulfonyl rhodamine B) method. Anticancer drug paclitaxel was used as positive control.
(§2) A549: lung cancer cells; DU145: prostate cancer cells; KB: nasopharyngeal cancer cells; KB-VIN: drug-resistant nasopharyngeal cancer cells. GI50 value was the concentration that causes 50% cancer cells growth inhibition, showing anticancer activity.

A549 lung cancer cells = test: Experiments of inhibiting growth of cancer cells, SRB method, A549; type: cell-based; conditions: Homo sapiens, 48 h with drug
Experimental: as §1, §2

Structure (SMILES)	GI50 [1] [µg/mL]	GI50 (A549 lung cancer cells) [µg/mL]	melting point [°C]
COc1ccc2c(c1)CCCN2c1nc(Cl)nc2ccccc12 [Compound 1, N^1-[4-(2-chloro)quinazolinyl]-6-methoxy-1,2,3,4-tetrahydroquinoline]	0.0005 (≈ 0.00153 µM)	0.0006 (≈ 0.00184 µM)	
COc1ccc2c(c1)CCCN2c1nc(C)nc2ccccc12 [Compound 2, N^1-[4-(2-methyl)quinazolinyl]-6-methoxy-1,2,3,4-tetrahydroquinoline]	0.0046 (≈ 0.0151 µM)	0.0056 (≈ 0.0183 µM)	
COc1ccc2c(c1)CCCN2c1nc(OC)nc2ccccc12 [Compound 3, N^1-[4-(2-methoxy)quinazolinyl]-6-methoxy-1,2,3,4-tetrahydro-quinoline]	0.0069 (≈ 0.0215 µM)	0.0077 (≈ 0.024 µM)	161 to 163
CNc1nc(N2CCCc3cc(OC)ccc32)c2ccccc2n1 [Compound 4, N^1-[4-(2-methylamino)quinazolinyl]-6-methoxy-1,2,3,4-tetrahydro-quinoline]	0.0075 (≈ 0.0234 µM)	0.0088 (≈ 0.0275 µM)	
Cc1ccc2c(c1)CCCN2c1nc(C)nc2ccccc12 [Compound 6, N^1-[4-(2-methyl)quinazolinyl]-6-methyl-1,2,3,4-tetrahydroquinoline]	0.051 (≈ 0.176 µM)	0.061 (≈ 0.211 µM)	136 to 138
Cc1nc(N2CCCc3cc(Br)ccc32)c2ccccc2n1 [Compound 7, N^1-[4-(2-methyl)quinazolinyl]-6-bromo-1,2,3,4-tetrahydroquinoline]	0.06 (≈ 0.169 µM)	0.075 (≈ 0.212 µM)	129 to 130
COc1ccc2c(c1)CCN2c1nc(C)nc2ccccc12 [Compound 8, 2-Methyl-4-[N^1-(5-methoxy)indolinyl]quinazoline]	0.059 (≈ 0.203 µM)	0.0679 (≈ 0.233 µM)	116 to 117
COc1ccc2c(c1)CCCN(c1nc(C)nc3ccccc13)C2 [Compound 9, N^2-[4-(2-methyl)quinazolinyl]-7-methoxy-2,3,4,5-tetrahydro-1H-benzo[c]azepine]	4.76 (≈ 14.9 µM)	5.34 (≈ 16.7 µM)	125 to 127
COc1ccc2c(c1)CCCCN2c1nc(Cl)nc2ccccc12 [Compound 10, N^1-[4-(2-chloro)quinazolinyl]-7-methoxy-2,3,4,5-tetrahydro-1H-benzo[b]-azepine]	0.056 (≈ 0.165 µM)	0.065 (≈ 0.191 µM)	102 to 103
COc1ccc2c(c1)C(O)CCN2c1nc(C)nc2ccccc12 (stereo not shown) [Compound 11, N^1-[4-(2-methyl)quinazolinyl]-4-hydroxyl-6-methoxy-1,2,3,4-tetrahydroquinoline]	0.006 (≈ 0.0187 µM)	0.006 (≈ 0.0187 µM)	
CCOC1CCN(c2nc(Cl)nc3ccccc23)c2ccc(OC)cc21 (stereo not shown) [Compound 12, N^1-[4-(2-chloro)quinazolinyl]-4-ethoxy-6-methoxy-1,2,3,4-tetrahydroquinoline]	0.06 (≈ 0.162 µM)	0.065 (≈ 0.176 µM)	70 to 72
COc1ccc2c(c1)OCCN2c1nc(Cl)nc2ccccc12 [Compound 13, N^4-[4-(2-chloro)quinazolinyl]-7-methoxy-3,4-dihydro-2H-benzo[b][1,4]oxazine]	0.055 (≈ 0.168 µM)	0.065 (≈ 0.198 µM)	173 to 174
COc1cc2c(cc1F)N(c1nc(C)nc3ccccc13)CCO2 [Compound 14, N^4-[4-(2-methyl)quinazolinyl]-6-fluoro-7-methoxy-3,4-dihydro-2H-benzo[b][1,4]oxazine]	7.77 (≈ 23.9 µM)	4.71 (≈ 14.5 µM)	192 to 194
COc1ccc2c(c1)C(=O)CCN2c1nc(Cl)nc2ccccc12 [Compound 18, N^1-[4-(2-chloro)quinazolinyl]-6-methoxy-2,3-dihydroquinolin-4(1H)-one]	0.0106 (≈ 0.0312 µM)	0.0091 (≈ 0.0268 µM)	218 to 220
COc1ccc2c(c1)NC(=O)CN2c1nc(C)nc2ccccc12 [Compound 19, N^4-[4-(2-methyl)quinazolinyl]-7-methoxy-3,4-dihydroquinoxalin-2(1H)-one]	0.0007 (≈ 0.00219 µM)	0.001 (≈ 0.00312 µM)	
COc1ccc2c(c1)CCCN2c1cc(C)nc2ccccc12 [Compound 20, 6-methoxy-2′-methyl-3,4-dihydro-2H-1,4′-biquinoline]	0.0115 (≈ 0.0378 µM)	0.0138 (≈ 0.0453 µM)	
COC(=O)c1cc(Br)cc(N2CCCc3cc(OC)ccc32)c1 [Compound 26, N^1-[(3-bromo-5-methoxycarbonyl)phenyl]-6-methoxy-1,2,3,4-tetrahydroquinoline]	0.483 (≈ 1.28 µM)	0.421 (≈ 1.12 µM)	
COc1ccc2c(c1)CCCN2c1cc(Br)cc(C(=O)O)c1 [Compound 27, N^1-[(3-bromo-5-carboxyl)phenyl]-6-methoxy-1,2,3,4-tetrahydro-quinoline]			175 to 177
CNC(=O)c1cc(Br)cc(N2CCCc3cc(OC)ccc32)c1 [Compound 28, N^1-[(3-bromo-5-methylaminoacyl)phenyl]-6-methoxy-1,2,3,4-tetrahydroquinoline]	0.209 (≈ 0.557 µM)	0.14 (≈ 0.373 µM)	166 to 167
COc1ccc2c(c1)CCCN2c1cc(Br)cc(C(=O)NC2CC2)c1 [Compound 29, N^1-[3-bromo-5-(N-cyclopropylaminoacyl)phenyl]-6-methoxy-1,2,3,4-tetrahydroquinoline]	0.062 (≈ 0.154 µM)	0.067 (≈ 0.167 µM)	
COc1ccc2c(c1)CCCN2c1cc(Cl)nc(N)n1 [Compound 30, N^1-[4-(2-amino-6-chloro)pyrimidinyl]-6-methoxy-1,2,3,4-tetrahydro-quinoline]	0.06 (≈ 0.206 µM)	0.077 (≈ 0.265 µM)	179 to 181
COc1ccc2c(c1)N(C)C(=O)CN2c1nc(C)nc2ccccc12 [Compound 31, N^1-methyl-N^4-[4-(2-methyl)quinazolinyl]-7-methoxy-3,4-dihydro-quinoxalin-2(1H)-one]	0.0072 (≈ 0.0215 µM)	0.0063 (≈ 0.0188 µM)	
COc1ccc2c(c1)CCCN2c1nc(N(C)C)nc2ccccc12 [Compound 32, 2-(N-methylmethylamino)-4-(6-methoxy-1,2,3,4-tetrahydro-1-quinolyl)quinazoline]	0.051 (≈ 0.153 µM)	0.056 (≈ 0.167 µM)	
COc1ccc2c(c1)CCCN2c1nc(NC2CC2)nc2ccccc12 [Compound 33, 2-cyclopropylamino-4-(6-methoxy-1,2,3,4-tetrahydro-1-quinolyl) quinazoline]	0.0045 (≈ 0.013 µM)	0.0057 (≈ 0.0165 µM)	
COc1ccc2c(c1)CCCN2c1nc(NC2CCCC2)nc2ccccc12 [Compound 34, 2-cyclopentylamino-4-(6-methoxy-1,2,3,4-tetrahydro-1-quinolyl) quinazoline]	0.483 (≈ 1.29 µM)	0.501 (≈ 1.34 µM)	
COc1ccc2c(c1)CCCN2c1nc(NCCCO)nc2ccccc12 [Compound 35, 2-(3-hydroxylpropylamino)-4-(6-methoxy-1,2,3,4-tetrahydro-1-quinolyl)quinazoline]	0.0073 (≈ 0.02 µM)	0.0058 (≈ 0.0159 µM)	
COc1ccc2c(c1)CCCN2c1cccc2ccccc12 [Compound 37, 4-(6-methoxy-1,2,3,4-tetrahydro-1-quinolyl)naphthalene]	4.27 (≈ 14.8 µM)	5.15 (≈ 17.8 µM)	
CC(=O)O[C@H]1C(=O)[C@@]2(C)[C@H]([C@H](OC(=O)c3ccccc3)[C@]3(O)C[C@H](OC(=O)[C@H](O)[C@@H](NC(=O)c4ccccc4)c4ccccc4)C(C)=C1C3(C)C)[C@]1(OC(C)=O)CO[C@@H]1C[C@@H]2O [Paclitaxel, paclitaxel, reference compound]	0.0053 (≈ 0.00621 µM)	0.0065 (≈ 0.00761 µM)	

From patent US9751884B2, “N-aryl unsaturated fused ring tertiary amine compounds, preparation method and anti-tumor applications thereof” (Institute of Pharmacology and Toxicology Academy of …, priority 2012, dated 2017)
